Assay results: article PMC5459845, “Expression and functional analysis of the lysine decarboxylase and copper amine oxidase genes from the endophytic fungus Colletotrichum gloeosporioides ES026” (Scientific Reports, 2017)

Key:
CgLDC = target: T1, CgLDC (Colletotrichum gloeosporioides, UniProt A0A1X9J191); assay: LC-MS detection of cadaverine (m/z […]); type: biochemical; conditions: pyridoxal phosphate 40 µg, potassium phosphate pH 8.0, 37 °C, 45 min; boiled enzyme as negative control
T1 construct: 256 residues, 28 kDa, cDNA 769 bp
T1 sequence (A0A1X9J191 62-294): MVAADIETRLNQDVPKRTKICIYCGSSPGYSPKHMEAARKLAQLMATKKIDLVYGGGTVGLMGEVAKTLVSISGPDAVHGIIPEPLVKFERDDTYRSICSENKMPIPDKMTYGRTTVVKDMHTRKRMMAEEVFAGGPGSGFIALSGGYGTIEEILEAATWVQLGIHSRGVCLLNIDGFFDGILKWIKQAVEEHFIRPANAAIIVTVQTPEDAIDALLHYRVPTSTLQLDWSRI

CgCAO = target: T2, CgCAO (Colletotrichum gloeosporioides, UniProt A0A191JKR0); assay: LC-MS detection of delta1-piperideine (m/z […]); type: biochemical; conditions: 1 mM cadaverine, 50 mM Tris-HCl pH 8.0, 25 °C, 16 h; boiled enzyme as negative control
T2 construct: 672 residues, 76 kDa, cDNA 2072 bp
T2 sequence (A0A191JKR0 1-684): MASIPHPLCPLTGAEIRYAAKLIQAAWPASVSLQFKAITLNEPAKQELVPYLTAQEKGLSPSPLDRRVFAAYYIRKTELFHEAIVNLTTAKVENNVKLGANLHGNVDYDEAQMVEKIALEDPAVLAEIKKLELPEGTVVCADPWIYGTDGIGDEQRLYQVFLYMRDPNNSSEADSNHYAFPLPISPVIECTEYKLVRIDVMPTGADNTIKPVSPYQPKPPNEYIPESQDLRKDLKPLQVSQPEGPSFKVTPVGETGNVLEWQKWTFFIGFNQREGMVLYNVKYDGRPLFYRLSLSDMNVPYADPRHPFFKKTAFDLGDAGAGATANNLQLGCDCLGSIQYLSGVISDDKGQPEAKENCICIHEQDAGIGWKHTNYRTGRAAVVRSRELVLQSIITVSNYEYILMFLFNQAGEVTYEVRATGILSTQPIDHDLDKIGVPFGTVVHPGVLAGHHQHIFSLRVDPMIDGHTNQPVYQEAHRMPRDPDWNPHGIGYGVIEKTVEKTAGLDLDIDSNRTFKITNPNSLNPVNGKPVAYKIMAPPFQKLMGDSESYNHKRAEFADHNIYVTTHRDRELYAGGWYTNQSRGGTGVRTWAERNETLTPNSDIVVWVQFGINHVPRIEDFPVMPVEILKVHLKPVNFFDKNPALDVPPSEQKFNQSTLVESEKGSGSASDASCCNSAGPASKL

Structure (SMILES) | LC-MS detection of cadaverine (m/z 103) (CgLDC) | LC-MS detection of delta1-piperideine (m/z 84) (CgCAO)
NCCCC[C@H](N)C(=O)O [L-lysine] | CgLDC catalyzed the conversion of L-lysine to cadaverine | 
NCCCCCN [cadaverine] |  | CgCAO converted cadaverine to 5-aminopentanal
